SMILES strings stand for the structures. Entries after “also recorded” stand apart in the source; their conditions may differ.

Experimental findings from patent US10723699B2 (Hyundai Pharm Co., Ltd., priority 2015, dated 2020) are described below.

Data set [1] deals with diet-induced obesity (DIO) rat model. As to the kind of experiment: Changes in weights in diet-induced obesity (DIO) rat model, 4-week administration. The format is in vivo, Sprague Dawley (SD) rats. Particulars: 4 weeks. The protocol: To simultaneously evaluate both the weight-loss and hypoglycemic effects of the cyclohexene derivative according to the present invention, experiments were carried out, as follows.
(§1) Specifically, male Sprague Dawley (SD) rats (approximately 4 weeks old) in a diet-induced obesity model were fed with a high-fat diet (Lab. Diet Co.) for approximately 10 weeks to induce high-fat diet-induced obesity (DIO). The rats undergoing the high-fat diet were randomly selected, and divided into groups (n=8) for respective administrations. The compounds of Comparative Examples 3 and 4 and Examples 48 and 119 were administered to the divided DIO rats each group for 4 weeks.
(§2) The weights of the DIO rats were measured twice a week during a period of administration of 4 weeks to record a change in the weights. At the end of the 4-week period of administration, a hypoglycemic effect was evaluated using an oral glucose tolerance test (OGTT), as follows.

The next data set concerns NCI-H716 cells. As to the kind of experiment: Promotion of glucagon-like peptide-1 (GLP-1) secretion (ELISA). Format: cell-based, human. As to conditions: 1, 10 and 30 μM-treated groups. The protocol:
To evaluate an effect of the cyclohexene derivative according to the present invention on promotion of glucagon-like peptide-1 (GLP-1) secretion, experiments were carried out, as follows.
NCI-H716 cells that were human enterocytes were plated on 12 wells at 1×10^6 cells per well. After 48 hours, the cells were starved in serum-free media for 2 hours, and treated with a varying concentration of siptagliptin that was a dipeptidyl peptidase-IV (DPP-IV) inhibitor, and the compounds of Comparative Example 1 (1, 10, 30 μM), Comparative Example 5 (10 μM), Example 48 (1, 10, 30 μM), and Example 291 (1, 10, 30 μM). After an hour, supernatants are recovered to determine an amount of the secreted GLP-1 peptide. The GLP-1 measurement was performed using an enzyme-linked immunosorbant assay (ELISA; Millipore, EGLP-35K), and the amount of the secreted GLP-1 peptide was indicated by the unit “pM”.
Background: ELISA stands for enzyme-linked immunosorbent assay.

The test system of data set [2] is diet-induced obesity (DIO) rat model. As to the kind of experiment: OGTT at the end of the 4-week administration in DIO rat model. The format is in vivo, Sprague Dawley (SD) rats. Particulars: glucose 2 g/kg 30 minutes later, after 4-week administration. The procedure:
as §1, §2
Specifically, each of the compounds of Comparative Example 3 (300 mg/kg) and Examples 48 and 119 (10, 20, 50 mg/kg) was administered, and 2 g/kg of glucose was orally administered after 30 minutes of the administration. A blood glucose level was determined using an Accu-Chek Active Strip (Roche diagnostic Co.). In this case, the glucose level in blood collected via caudal venipuncture was measured at time points of −30, 0, 20, 40, 60, and 120 minutes after glucose administration. […]

For data set [3], the system named is male C57BL/6J (C57 black 6) rats in a high-fat diet model. Put plainly: Oral glucose tolerance test (OGTT), high-fat diet model. Format: in vivo. As to conditions: 20 mg/kg oral, Table 3. The procedure:
To evaluate in vivo effective effects of the cyclohexene derivatives according to the present invention, experiments were carried out, as follows.
Specifically, male C57BL/6J (C57 black 6) […] (8 to 10 weeks old) in a high-fat diet model were acclimated for at least 7 days, and only healthy rat populations were selected and subjected to an oral glucose tolerance test (OGTT). The rats were fasted for 12 to 15 hours, and then randomly divided into groups with five rats per group. Thereafter, each of the compounds of Examples 1, 14, 48, 69, 80, 118, 139, 147, 148, 169, 190, 199, 200, 204, 227, 277, 290, 291, 442, 443, and 461 to 466, and Comparative Examples 1 and 2 according to the present invention was administered to the rats at a dose of 20 mg/kg. In this case, a vehicle (0.5%, carboxymethyl cellulose (CMC)) was administered as an untreated group, and the dose of the compound administered together with the vehicle was orally administered at 10 ml/kg. After 30 minutes of administration, glucose (2 g/kg) was orally administered at a dose of 10 ml/kg. A blood glucose level was measured using an Accu-Chek Active Strip (Rosche Diagnostic Co.). In this case, the glucose level in blood collected via caudal venipuncture was measured at time points of −30, 0, 20, 40, 60, and 120 minutes after glucose administration. […]

The target of another data set is T1, CYP3A4 (Homo sapiens, UniProt P08684).
T1 construct: purchased BD GENTEST 459500
T1 sequence (P08684 whole entry): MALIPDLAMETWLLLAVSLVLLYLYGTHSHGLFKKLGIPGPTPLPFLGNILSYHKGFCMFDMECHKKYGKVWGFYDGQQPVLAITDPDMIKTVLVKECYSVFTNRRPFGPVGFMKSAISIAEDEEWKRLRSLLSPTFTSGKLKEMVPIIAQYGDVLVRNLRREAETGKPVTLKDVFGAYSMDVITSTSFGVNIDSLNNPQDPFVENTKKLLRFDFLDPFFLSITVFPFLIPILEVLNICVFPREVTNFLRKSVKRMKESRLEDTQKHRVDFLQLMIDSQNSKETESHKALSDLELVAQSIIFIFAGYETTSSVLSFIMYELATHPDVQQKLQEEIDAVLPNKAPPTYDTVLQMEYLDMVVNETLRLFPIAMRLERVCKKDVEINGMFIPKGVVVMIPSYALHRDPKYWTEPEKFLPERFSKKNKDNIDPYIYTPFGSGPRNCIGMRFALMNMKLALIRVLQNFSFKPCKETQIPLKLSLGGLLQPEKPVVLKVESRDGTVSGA
Put plainly: CYP inhibition assay (BD GENTEST kit). Format: in vitro ADME. Particulars: human, CYP3A4 enzyme/substrate mixture of BD GENTEST kit, pH 7.4, 10 μM; read-out: CYP inhibition (% at 10 μM) 3A4. From the text: (§3) CYP enzymes play a major role in the metabolism of drugs. Depending on the inhibition activity of the CYP enzymes, the dose of the drugs and toxicity due to the co-administration of other drugs can be predicted. Therefore, we have measured the inhibitory activity for CYP3A4, CYP2C9, CYP1A2, CYP2D6 and CYP2C19 enzymes present in the body using the compounds of the present invention. Invitrogen P2862 kit was used for CYP2D6 inhibition assay, and BD GENTEST (459100, 459300, 459400, 459500) kits were used for CYP1A2, CYP2C9, CYP2C19 and CYP3A4 inhibition assay. In case of Invitrogen kit, the test materials were diluted in distilled water into 2.5× of the final test concentration.
(§4) In case of BD GENTEST kit, the test materials were diluted in acetonitrile into 50× of the final test concentration. NADPH-cofactor mixture containing cofactor, G6PDH and control protein was prepared in distilled water as per manufacturer's instruction. 4 μl of 50× test materials and 96 μl of NADPH-cofactor mixture were mixed in U-bottom 96-well plate, and the resulting mixture were pre-incubated at 37° C. for 10 minutes. Predetermined concentrations of enzyme/substrate mixture were prepared in distilled water using buffer (0.5M potassium phosphate, pH 7.4) and each of CYP450 enzyme/substrate mixture provided in the kit for the types of CYP450. To the pre-incubated plate, 100 μl of enzyme/substrate mixture was added, and then incubated at 37° C. for 15 minutes (CYP1A2), 30 minutes (CYP3A4 and CYP2C19) or 1.5 hours (CYP2C9). After completion of the reaction, the reactants were transferred to the white plates, and fluorescent values were measured using a micro-plate reader (Excitation and absorption wavelengths of CYP1A2 and CYP2C19 were 410 nm and 460 nm, respectively; and excitation and absorption wavelengths of CYP2C9 and CYP3A4 were 409 nm and 530 nm, respectively).
(§5) The measured values were converted into the inhibition percent of the test materials as compared to the value of the untreated control, and the results were summarized in Table 5.

For the next data set, the target named is T2, CYP1A2 (Homo sapiens, UniProt P05177).
T2 construct: purchased BD GENTEST 459100
T2 sequence (P05177 1-516): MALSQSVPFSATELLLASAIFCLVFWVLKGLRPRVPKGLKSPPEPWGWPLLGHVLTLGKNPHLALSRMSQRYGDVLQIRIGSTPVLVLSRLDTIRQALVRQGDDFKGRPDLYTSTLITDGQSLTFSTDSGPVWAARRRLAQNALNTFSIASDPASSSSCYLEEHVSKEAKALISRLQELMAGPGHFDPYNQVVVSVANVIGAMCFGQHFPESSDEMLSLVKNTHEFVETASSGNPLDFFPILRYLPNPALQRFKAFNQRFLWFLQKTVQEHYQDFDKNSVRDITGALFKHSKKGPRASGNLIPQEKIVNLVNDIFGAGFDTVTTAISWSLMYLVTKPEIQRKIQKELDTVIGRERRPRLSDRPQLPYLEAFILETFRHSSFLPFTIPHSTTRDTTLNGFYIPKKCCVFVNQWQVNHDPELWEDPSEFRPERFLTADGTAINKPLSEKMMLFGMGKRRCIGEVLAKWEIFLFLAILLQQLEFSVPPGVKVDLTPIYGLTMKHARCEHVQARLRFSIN
As to the kind of experiment: CYP inhibition assay (BD GENTEST kit). The format is in vitro ADME. Particulars: human, CYP1A2 enzyme/substrate mixture of BD GENTEST kit, pH 7.4, 10 μM; read-out: CYP inhibition (% at 10 μM) 1A2.
From the text: as §3, §4, §5

The target in the next data set is T3, CYP2C9 (Homo sapiens, UniProt P11712).
T3 construct: purchased BD GENTEST 459300
T3 sequence (P11712 whole entry): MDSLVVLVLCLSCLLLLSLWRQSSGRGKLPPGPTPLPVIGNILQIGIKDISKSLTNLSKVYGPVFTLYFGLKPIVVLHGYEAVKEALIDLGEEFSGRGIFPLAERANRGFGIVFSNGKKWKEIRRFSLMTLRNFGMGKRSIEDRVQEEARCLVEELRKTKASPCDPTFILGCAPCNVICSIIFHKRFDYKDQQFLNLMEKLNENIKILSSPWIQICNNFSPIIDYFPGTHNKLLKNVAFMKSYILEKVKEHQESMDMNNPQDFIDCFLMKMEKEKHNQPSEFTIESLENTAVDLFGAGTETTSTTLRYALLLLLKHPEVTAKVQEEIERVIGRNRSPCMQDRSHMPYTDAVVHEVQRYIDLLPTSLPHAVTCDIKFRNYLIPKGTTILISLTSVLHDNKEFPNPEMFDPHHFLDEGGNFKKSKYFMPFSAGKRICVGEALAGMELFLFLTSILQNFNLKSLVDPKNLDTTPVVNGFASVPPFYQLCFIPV
Put plainly: CYP inhibition assay (BD GENTEST kit). Format: in vitro ADME. As to conditions: human, CYP2C9 enzyme/substrate mixture of BD GENTEST kit, pH 7.4, 10 μM; read-out: CYP inhibition (% at 10 μM) 2C9.
From the text: as §3, §4, §5

For another data set, the target named is T4, CYP2D6 (Homo sapiens, UniProt P10635).
T4 construct: purchased Invitrogen P2862
T4 sequence (P10635 whole entry): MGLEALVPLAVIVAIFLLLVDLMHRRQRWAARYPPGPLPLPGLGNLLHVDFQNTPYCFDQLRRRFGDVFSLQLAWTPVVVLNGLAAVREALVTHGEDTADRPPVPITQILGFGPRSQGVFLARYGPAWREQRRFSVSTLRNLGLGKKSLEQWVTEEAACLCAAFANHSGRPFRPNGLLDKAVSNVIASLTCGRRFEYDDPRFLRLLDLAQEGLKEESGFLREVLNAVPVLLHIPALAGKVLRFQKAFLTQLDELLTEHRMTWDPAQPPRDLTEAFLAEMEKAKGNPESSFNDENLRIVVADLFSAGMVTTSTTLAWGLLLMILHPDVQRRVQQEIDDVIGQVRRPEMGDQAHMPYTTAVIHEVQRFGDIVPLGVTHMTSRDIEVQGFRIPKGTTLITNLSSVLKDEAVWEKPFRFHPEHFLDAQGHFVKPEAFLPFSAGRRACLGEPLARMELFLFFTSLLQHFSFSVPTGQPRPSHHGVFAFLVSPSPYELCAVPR
Put plainly: CYP inhibition assay (Invitrogen P2862 kit). Format: in vitro ADME. As to conditions: human, CYP2D6 P450 BACULOSOMES (Invitrogen P2862 kit), probe Vivid CYP450 substrate, read-out: CYP inhibition (% at 10 μM) 2D6.
From the text: as §3
P450 BACULOSOMES® reagent and regeneration device (100×) provided by the Invitrogen kit were diluted in the Vivid® reaction buffer (2×) into the appropriate concentration for the type of CYP450. After mixing 80 μl of the 2.5× test material and 100 μl of the mixture of the diluted P450 BACULOSOMES® reagent in U-bottom 96-well plate, the resulting mixture was pre-incubated for 20 minutes. Vivid® CYP450 substrate and NADP+ (100×) were diluted in the Vivid® CYP450 reaction buffer (2×) into the appropriate concentration for the types of CYP450 and the substrates. After completion of the pre-incubation, 20/l of the substrate-NADP (nicotinamide adenine dinucleotide phosphate) mixture was added, and then incubated for 1 hour. After completion of the reaction, the reactants were transferred to the white plates, and fluorescence values were measured using a micro-plate reader (Excitation and absorption wavelengths of CYP2D6 were 400 nm and 502 nm, respectively).
as §5

As for `CC(C)c1noc(N2CCC(COc3ccc(C4=CCC(C(=O)N5CC[C@@H](O)C5)CC4)cc3)CC2)n1` (stereo partly drawn) [Example 48, ((R)-3-hydroxypyrrolidin-1-yl)(4-(4-((1-(3-isopropyl-1,2,4-oxadiazol-5-yl)piperidin-4-yl)methoxy)phenyl)cyclohex-3-enyl)methanone], the “changes in weights of rats (weight-loss effect)” value in data set [1] (10, 20, and 50 mg/kg oral) is given as “higher weight-loss effect; also recorded: persistent weight loss was observed for 4 weeks”. In addition, the “GLP-1 secretion compared with Comparative Example 1” value with NCI-H716 cells is recorded as “higher level than that of Comparative Example 1”. The hypoglycemic effect entry in data set [2] (50 mg/kg oral) was “approximately 25%”.
In the case of `CN(C)C(=N)NC(=N)N` [Comparative Example 3, Metformin], the “changes in weights of rats (weight-loss effect)” value in data set [1] (300 mg/kg oral) was “weight loss was observed for 2 weeks; also recorded: the weight rather increased after 2 weeks”. In data set [2] (300 mg/kg oral), the hypoglycemic effect entry is “approximately 22%”.
The molecule `CC(C)c1noc(N2CCC(COc3ccc(-c4ccc(S(C)(=O)=O)cc4)nc3)CC2)n1` [Comparative Example 2, 2-(4-methanesulfonylphenyl)-5-({1-[3-(propan-2-yl)-1,2,4-oxadiazol-5-yl]piperidin-4-yl}methoxy)pyridine] registered a hypoglycemic effect in data set [3] of 15.3%.
Usually inhibition stands for the relative decrease from the control value, in per cent. Turning to `CC(C)c1noc(C2CCN(c3ncnc(Nc4ccc(S(C)(=O)=O)cc4F)c3[N+](=O)[O-])CC2)n1` [Comparative Example 1, N-(2-fluoro-4-methylsulfonylphenyl)-5-nitro-6-[4-(3-propan-2-yl-1,2,4-oxadiazol-5-yl)piperidin-1-yl]pyrimidine-4-amine, reference compound], the inhibition at 30 min, 10 µM on CYP3A4 was 47.8%. Besides, the inhibition at 15 min, 10 µM on CYP1A2 was 10.4%. Also, the inhibition at 1.5 h, 10 µM on CYP2C9 was 24.1%. This molecule registered a hypoglycemic effect in data set [3] of 13.5%. Further, on CYP2D6, the inhibition at 1 h, 10 µM turned out to be 9.84%.
